Data from article doi:10.1101/2021.04.08.439011v1 (biorxiv, 2021).
Read-outs that look alike come from different tables or passages of the source.

Assays:
YSK1 = YSK1 (Homo sapiens, UniProt O00506); conditions: 0.1 µM; binder
DAPK3 = DAPK3 (Homo sapiens, UniProt O43293); conditions: 0.1 µM; binder
KIT(V559D,V654A) = KIT(V559D,V654A) (Homo sapiens, UniProt P10721, V559D/V654A); conditions: 0.1 µM; binder
ULK3 = ULK3 (Homo sapiens, UniProt Q6PHR2); conditions: 0.1 µM; binder
PRKD2 = PRKD2 (Homo sapiens, UniProt Q9BZL6); conditions: 0.1 µM; binder
MEK2 = MEK2 (Homo sapiens, UniProt P36507); conditions: 0.1 µM; binder
BRAF(V600E) = BRAF(V600E) (Homo sapiens, UniProt P15056, V600E); conditions: 0.1 µM; binder
TAOK2 = TAOK2 (Homo sapiens, UniProt Q9UL54); conditions: 0.1 µM; binder
p38-delta = p38-delta (Homo sapiens, UniProt O15264); conditions: 0.1 µM; binder
CDK5 = CDK5 (Homo sapiens, UniProt Q00535); conditions: 0.1 µM; binder
ULK2 = ULK2 (Homo sapiens, UniProt Q8IYT8); conditions: 0.1 µM; binder
CHEK2 = CHEK2 (Homo sapiens, UniProt O96017); conditions: 0.1 µM; binder
RET = RET (Homo sapiens, UniProt P07949); conditions: 0.1 µM; binder
ABL1(H396P) = ABL1(H396P) (Homo sapiens, UniProt P00519, H396P); conditions: 0.1 µM, binder
DRAK2 = DRAK2 (Homo sapiens, UniProt O94768); conditions: 0.1 µM; binder
PRKR = PRKR (Homo sapiens, UniProt P19525); conditions: 0.1 µM; binder
JNK3 = JNK3 (Homo sapiens, UniProt P53779); conditions: 0.1 µM; binder
PLK1 = PLK1 (Homo sapiens, UniProt P53350); conditions: 0.1 µM; binder
BMPR1A = BMPR1A (Homo sapiens, UniProt P36894); conditions: 0.1 µM; binder
MET(M1250T) = MET(M1250T) (Homo sapiens, UniProt P08581, M1250T); conditions: 0.1 µM; binder
AXL = AXL (Homo sapiens, UniProt P30530); conditions: 0.1 µM; binder
MARK2 = MARK2 (Homo sapiens, UniProt Q7KZI7); conditions: 0.1 µM; binder
ERBB2 = ERBB2 (Homo sapiens, UniProt P04626); conditions: 0.1 µM; binder
ADCK4 = ADCK4 (Homo sapiens, UniProt Q96D53); conditions: 0.1 µM; binder
DMPK = DMPK (Homo sapiens, UniProt Q09013); conditions: 0.1 µM; binder
RIOK2 = RIOK2 (Homo sapiens, UniProt Q9BVS4); conditions: 0.1 µM; binder
ERK3 = ERK3 (Homo sapiens, UniProt Q16659); conditions: 0.1 µM; binder
NEK2 = NEK2 (Homo sapiens, UniProt P51955); conditions: 0.1 µM; binder
GSK3B = GSK3B (Homo sapiens, UniProt P49841); conditions: 0.1 µM; binder
MAP3K12 = MAP3K12 (Homo sapiens, UniProt Q12852); conditions: 0.1 µM; binder
PCTK1 = PCTK1 (Homo sapiens, UniProt Q00536); conditions: 0.1 µM; binder

Sequence of CDK5 (Q00535 whole entry): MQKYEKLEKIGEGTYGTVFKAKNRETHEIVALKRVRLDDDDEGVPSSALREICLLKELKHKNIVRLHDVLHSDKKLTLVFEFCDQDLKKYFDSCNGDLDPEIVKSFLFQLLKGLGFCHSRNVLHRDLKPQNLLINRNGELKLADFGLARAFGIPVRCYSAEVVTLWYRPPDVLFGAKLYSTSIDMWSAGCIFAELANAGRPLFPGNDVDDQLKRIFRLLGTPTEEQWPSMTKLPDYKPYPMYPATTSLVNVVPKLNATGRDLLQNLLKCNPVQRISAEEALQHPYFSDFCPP
Sequence of PRKD2 (Q9BZL6 whole entry): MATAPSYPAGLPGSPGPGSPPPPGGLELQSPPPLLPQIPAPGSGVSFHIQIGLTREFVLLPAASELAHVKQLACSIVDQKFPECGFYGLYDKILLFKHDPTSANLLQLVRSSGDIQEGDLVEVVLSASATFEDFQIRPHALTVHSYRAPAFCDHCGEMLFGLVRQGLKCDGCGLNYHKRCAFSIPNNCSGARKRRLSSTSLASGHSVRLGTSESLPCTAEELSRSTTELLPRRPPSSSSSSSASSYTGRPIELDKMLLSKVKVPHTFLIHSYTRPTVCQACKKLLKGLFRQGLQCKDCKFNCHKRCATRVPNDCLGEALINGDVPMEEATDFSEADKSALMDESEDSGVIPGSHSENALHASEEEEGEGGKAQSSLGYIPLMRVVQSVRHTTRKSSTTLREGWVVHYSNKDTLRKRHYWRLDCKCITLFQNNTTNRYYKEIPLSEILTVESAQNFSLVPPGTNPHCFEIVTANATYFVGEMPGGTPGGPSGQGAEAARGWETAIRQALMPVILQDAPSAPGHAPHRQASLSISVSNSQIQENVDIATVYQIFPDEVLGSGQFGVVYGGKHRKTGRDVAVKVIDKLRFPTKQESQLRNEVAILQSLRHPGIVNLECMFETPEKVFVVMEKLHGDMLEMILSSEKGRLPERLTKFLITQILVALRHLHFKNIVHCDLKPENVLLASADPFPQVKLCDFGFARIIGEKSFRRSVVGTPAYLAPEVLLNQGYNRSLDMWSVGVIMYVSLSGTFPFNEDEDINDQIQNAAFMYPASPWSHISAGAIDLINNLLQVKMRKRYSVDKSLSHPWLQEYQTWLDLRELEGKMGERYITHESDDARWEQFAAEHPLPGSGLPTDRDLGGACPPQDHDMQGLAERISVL
Sequence of TAOK2 (Q9UL54 whole entry): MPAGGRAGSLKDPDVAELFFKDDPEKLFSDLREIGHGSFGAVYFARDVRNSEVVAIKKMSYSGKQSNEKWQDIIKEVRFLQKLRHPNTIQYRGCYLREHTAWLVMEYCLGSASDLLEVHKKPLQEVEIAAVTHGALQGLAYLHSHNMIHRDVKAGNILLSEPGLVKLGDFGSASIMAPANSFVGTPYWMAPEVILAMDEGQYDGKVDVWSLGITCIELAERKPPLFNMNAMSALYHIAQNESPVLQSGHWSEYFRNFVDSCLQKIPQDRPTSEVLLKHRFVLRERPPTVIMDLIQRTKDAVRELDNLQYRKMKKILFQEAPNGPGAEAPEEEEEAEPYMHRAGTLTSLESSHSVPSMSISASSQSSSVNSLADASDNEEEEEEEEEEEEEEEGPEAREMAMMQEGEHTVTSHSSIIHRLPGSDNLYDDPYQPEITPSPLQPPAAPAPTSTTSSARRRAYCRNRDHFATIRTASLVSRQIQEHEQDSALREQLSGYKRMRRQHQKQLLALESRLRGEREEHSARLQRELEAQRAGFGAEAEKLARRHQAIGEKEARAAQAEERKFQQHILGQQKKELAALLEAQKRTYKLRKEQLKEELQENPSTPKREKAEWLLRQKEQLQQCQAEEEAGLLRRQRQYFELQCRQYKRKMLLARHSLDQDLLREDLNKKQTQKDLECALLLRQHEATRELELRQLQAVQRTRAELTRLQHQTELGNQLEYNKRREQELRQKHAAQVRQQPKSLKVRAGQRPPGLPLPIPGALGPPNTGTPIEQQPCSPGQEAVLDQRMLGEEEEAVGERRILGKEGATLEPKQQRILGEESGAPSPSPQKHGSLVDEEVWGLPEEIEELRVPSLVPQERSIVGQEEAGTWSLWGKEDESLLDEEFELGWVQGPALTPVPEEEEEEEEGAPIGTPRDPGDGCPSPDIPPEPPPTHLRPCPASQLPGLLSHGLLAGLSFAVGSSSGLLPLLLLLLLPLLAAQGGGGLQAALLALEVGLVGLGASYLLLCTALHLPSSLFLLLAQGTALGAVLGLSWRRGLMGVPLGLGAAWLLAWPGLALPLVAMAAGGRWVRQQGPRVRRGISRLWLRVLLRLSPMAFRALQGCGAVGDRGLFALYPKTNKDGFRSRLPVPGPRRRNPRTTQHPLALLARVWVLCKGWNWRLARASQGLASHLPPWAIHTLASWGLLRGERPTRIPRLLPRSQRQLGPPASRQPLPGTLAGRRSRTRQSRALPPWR
Sequence of ADCK4 (Q96D53 whole entry): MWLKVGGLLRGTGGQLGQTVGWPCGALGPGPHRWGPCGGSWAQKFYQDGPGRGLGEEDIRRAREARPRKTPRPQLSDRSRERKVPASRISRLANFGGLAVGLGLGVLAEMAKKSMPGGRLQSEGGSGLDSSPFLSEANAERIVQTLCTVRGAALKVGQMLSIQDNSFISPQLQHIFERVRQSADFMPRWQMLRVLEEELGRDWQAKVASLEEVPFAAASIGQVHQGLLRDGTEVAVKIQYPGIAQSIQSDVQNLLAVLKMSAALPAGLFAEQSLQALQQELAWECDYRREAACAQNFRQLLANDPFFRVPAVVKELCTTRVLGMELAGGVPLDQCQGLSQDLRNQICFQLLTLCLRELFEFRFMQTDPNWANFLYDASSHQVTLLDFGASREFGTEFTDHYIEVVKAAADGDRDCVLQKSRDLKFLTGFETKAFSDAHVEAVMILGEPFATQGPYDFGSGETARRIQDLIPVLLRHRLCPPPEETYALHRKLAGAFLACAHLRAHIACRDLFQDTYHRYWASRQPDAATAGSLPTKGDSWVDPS
Sequence of DMPK (Q09013 whole entry): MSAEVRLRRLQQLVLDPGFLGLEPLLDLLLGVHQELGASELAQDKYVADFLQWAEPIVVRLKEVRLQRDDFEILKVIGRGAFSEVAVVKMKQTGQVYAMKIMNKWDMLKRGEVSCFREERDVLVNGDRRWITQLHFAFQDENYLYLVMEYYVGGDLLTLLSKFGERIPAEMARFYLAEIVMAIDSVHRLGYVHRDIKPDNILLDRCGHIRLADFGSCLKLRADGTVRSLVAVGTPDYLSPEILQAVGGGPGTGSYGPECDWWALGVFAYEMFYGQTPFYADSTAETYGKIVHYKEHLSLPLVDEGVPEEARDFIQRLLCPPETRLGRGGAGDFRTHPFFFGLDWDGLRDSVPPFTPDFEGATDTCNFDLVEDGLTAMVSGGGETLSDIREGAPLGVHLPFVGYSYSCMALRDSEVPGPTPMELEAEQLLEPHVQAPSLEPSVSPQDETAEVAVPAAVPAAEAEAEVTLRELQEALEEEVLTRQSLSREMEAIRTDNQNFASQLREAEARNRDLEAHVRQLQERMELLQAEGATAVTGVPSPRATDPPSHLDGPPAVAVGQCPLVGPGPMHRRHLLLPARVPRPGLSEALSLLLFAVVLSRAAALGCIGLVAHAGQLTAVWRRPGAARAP
Sequence of MAP3K12 (Q12852 whole entry): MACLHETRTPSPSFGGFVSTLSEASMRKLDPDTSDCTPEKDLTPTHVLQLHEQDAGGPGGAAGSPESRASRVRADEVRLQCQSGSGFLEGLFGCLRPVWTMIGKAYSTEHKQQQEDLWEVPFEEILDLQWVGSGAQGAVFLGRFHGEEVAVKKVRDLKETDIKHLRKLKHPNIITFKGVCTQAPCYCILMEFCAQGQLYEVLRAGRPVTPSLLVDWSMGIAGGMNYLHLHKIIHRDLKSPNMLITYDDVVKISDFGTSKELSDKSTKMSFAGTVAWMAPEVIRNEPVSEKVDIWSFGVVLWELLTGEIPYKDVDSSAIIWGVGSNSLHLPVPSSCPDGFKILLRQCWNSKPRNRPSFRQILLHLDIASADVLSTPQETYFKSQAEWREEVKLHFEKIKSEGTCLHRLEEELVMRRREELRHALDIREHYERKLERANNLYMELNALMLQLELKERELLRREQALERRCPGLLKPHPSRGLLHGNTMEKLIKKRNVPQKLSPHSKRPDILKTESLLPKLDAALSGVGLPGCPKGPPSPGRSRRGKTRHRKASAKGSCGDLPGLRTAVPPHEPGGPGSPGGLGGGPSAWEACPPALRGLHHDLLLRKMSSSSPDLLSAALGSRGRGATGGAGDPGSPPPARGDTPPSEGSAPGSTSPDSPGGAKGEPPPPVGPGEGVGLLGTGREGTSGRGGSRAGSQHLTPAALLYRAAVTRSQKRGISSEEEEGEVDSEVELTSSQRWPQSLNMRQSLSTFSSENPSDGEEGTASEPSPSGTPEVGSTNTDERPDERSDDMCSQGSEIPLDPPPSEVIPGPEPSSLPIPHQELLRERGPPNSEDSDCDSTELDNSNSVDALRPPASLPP
Sequence of YSK1 (O00506 whole entry): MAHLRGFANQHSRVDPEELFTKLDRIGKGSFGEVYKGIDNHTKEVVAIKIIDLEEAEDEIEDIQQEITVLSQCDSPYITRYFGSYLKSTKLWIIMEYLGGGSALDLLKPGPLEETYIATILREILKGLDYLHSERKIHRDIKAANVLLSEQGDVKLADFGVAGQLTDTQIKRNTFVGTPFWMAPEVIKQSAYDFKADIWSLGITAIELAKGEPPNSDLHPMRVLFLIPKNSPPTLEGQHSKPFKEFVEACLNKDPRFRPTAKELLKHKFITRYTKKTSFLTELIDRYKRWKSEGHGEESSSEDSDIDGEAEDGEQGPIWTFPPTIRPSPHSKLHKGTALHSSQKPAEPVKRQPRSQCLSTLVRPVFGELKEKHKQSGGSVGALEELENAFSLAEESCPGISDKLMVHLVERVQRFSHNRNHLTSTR

CNc1ncc2cc(-c3ccc(-c4cccc(C)n4)cc3Cl)c(=O)n(C[C@H]3OC[C@H](N)CO3)c2n1 [compound 6, G-5555]
Percent Control (YSK1): 40%
Percent Control (DAPK3): 100%
Percent Control (KIT(V559D,V654A)): 77%
Percent Control (ULK3): 90%
Percent Control (PRKD2): 92%
Percent Control (MEK2): 33%
Percent Control (BRAF(V600E)): 100%
Percent Control (TAOK2): 99%
Percent Control (p38-delta): 86%
Percent Control (CDK5): 100%
Percent Control (ULK2): 100%
Percent Control (CHEK2): 100%
Percent Control (RET): 96%
Percent Control (ABL1(H396P); nonphosphorylated): 79%
Percent Control (ABL1(H396P); phosphorylated): 97%
Percent Control (DRAK2): 66%
Percent Control (PRKR): 100%
Percent Control (JNK3): 92%
Percent Control (PLK1): 82%
Percent Control (BMPR1A): 90%
Percent Control (MET(M1250T)): 76%
Percent Control (AXL): 100%
Percent Control (MARK2): 100%
Percent Control (ERBB2): 100%
Percent Control (ADCK4): 99%
Percent Control (DMPK): 100%
Percent Control (RIOK2): 100%
Percent Control (ERK3): 100%
Percent Control (NEK2): 100%
Percent Control (GSK3B): 97%
Percent Control (MAP3K12): 100%
Percent Control (PCTK1): 100%
